Tests used:
[1] = biological target: T1, NS3 protease self-cleavage in Huh-7-Luc-Neo-ET cells (Hepatitis C virus genotype 1b, UniProt Q9WMX2, E1202G/T1280I); type: cell-based, HCV; conditions: wild type replicon cells
T1 construct: host or cells: Huh-7-Luc-Neo-ET replicon cells (human hepatoma Huh7)
Procedure: Inhibition of Protease Self Cleavage
The remaining wells were rinsed 2× with PBS then fed with Replicon Media and returned to the incubator.
(§1) Cell lysates were separated by SDS-Page (4-20%) and transferred to Immobilon-P PVDF membrane (Millipore Corporation, MA) and blotted with polyclonal anti NS3 antibody (Bioenza, Calif.). Blots were scanned on an Odyssey infrared scanner from Licor and the FL band and cleavage products were quantified separately using the Licor software provided with the scanner. The cleavage product was calculated as a percentage of the total NS3 in each sample and then normalized to the DMSO control so that the DMSO control reflects 100% activity.

[2] = system: HCV RNA replicon in cell line ET (luc-ubi-neo/ET), human Huh7 hepatoma; assay: Luciferase reporter replicon assay (Example 5, Method C); type: cell-based; conditions: Hepatitis C virus, Huh-7, 72 hr, EC90, read-out: Inhibition, Replicon, EC90 value
Procedure: Method C: Luciferase Reporter Assay Protocol
The compounds were assayed to evaluate the antiviral activity and cytotoxicity of compounds using replicon-derived luciferase activity. This assay used the cell line ET (luc-ubi-neo/ET), which is a human Huh7 hepatoma cell line that contains an HCV RNA replicon with a stable luciferase (Luc) reporter and three cell culture-adaptive mutations. The ET cell line was grown in a 5% CO2 incubator at 37° C. in Dulbecco's modified essential media (DMEM), supplemented with 2 mM L-glutamine (“1%”), nonessential amino acids, 100 U of penicillin/mL, 100 μg of streptomycin/mL (“1%”), 10% fetal bovine serum and 400 μg/mL G418 (Geneticin; Invitrogen).
All cell culture reagents were obtained from Invitrogen (Carlsbad). Cells were trypsinized (1% trypsin:EDTA) and plated out at 5×10^3 cells/well in white 96-well assay plates (Costar) dedicated to cell number (cytotoxicity) or antiviral activity assessments. Test compounds were added at six 3-fold serial dilutions each and the assay was run in DMEM, 5% FBS, 1% pen-strep, 1% glutamine, 1% non essential amino acid. Human interferon alpha-2b (PBL Biolabs, New Brunswick, N.J.) was included in each run as a positive control compound. Cells were processed 72 hr post test compound addition when the cells were still subconfluent. Antiviral activity was measured by analyzing replicon-derived luciferase activity using the Steady-Glo Luciferase Assay System (Promega, Madison, Wis.) according to manufacturer's instruction. The number of cells in each well was determined by Cell Titer Blue Assay (Promega). Compound profile was derived by calculating applicable EC50 (effective concentration inhibiting virus replication by 50%), EC90 (effective concentration inhibiting virus replication by 90%), IC50 (concentration decreasing cell viability by 50%) and SI50 (selective index: […]) values.

[3] = system: HCV NS3/4A genotypes 1a, 1b, 2a, and 3a; assay: Mass spectrometric analysis of covalent modification, NS3/4A genotypes; type: binding; conditions: 3 hours reaction, each genotype 1a, 10-fold excess of compound
Procedure: Mass spectrometric analysis of HCV wild type or HCV variants (C159S, A156S, R155K, D168A, A156T, and D168V) in the presence of test compound was performed. 100 pmols of HCV wild type (Bioenza Calif.) was incubated with test compound for 1 hr and 3 hrs at 10-fold excess of test compound to protein. 1 μL aliquots of the samples (total volume of 4.24 μL) were diluted with 10 μL of 0.1% TFA prior to micro C4 ZipTipping directly onto the MALDI target using Sinapinic acid as the desorption matrix (10 mg/mL in 0.1% TFA:Acetonitrile 50:50). Analyses were performed on a Shimadzu Biotech Axima TOF (Shimadzu Instruments) matrix-assisted-laser desorption/ionization Time-of-Flight (MALDI-TOF) mass spectrometer. The same procedure was carried out on 100 pmols of HCV C159S mutant of HCV protease for 3 hrs at 10-fold excess of test compound to protein.
In addition, mass spectrometric analysis of HCV NS3/4A genotypes 1a, 1b, 2a, and 3a in the presence of test compound was performed using the above protocol.

[4] = biological target: T2, NS3 protease R155K self-cleavage in modified replicon system (Hepatitis C virus genotype 1b, UniProt Q9WMX2, E1202G/R1181K/T1280I); assay: Inhibition of protease self cleavage in R155K modified replicon system (washout); type: cell-based, HCV; conditions: R155K modified replicon system (FIG. 6)
T2 construct: expressed in transfected cells; host or cells: replicon cells carrying the R155K-mutated pFK-I389-luc-ubi-neo-NS3-3'ET replicon
Procedure: Constructs containing clinically relevant mutations were generated by performing site-directed mutagenesis on the pFK-1389-luc-ubi-neo-NS3-3′ET plasmid (ReBLikon Gmbh (Heidelberg, Germany)). using the QuickChange II Site-Directed Mutagenesis Kit (Stratagene, La Jolla, Calif.) according to manufacturer's directions and with the primers described in Table 2.
Huh-7-Luc-Neo-ET cells were plated in Replicon Assay Medium (RPMI supplemented with 5% FBS, 1× non-essential amino acids and pen/strep) at a density of 1×10^5 cells/well in 12 well plates. Eight hours later the media was removed and replaced with 1 mL media containing test compound (5 wells per compound) and 0.02% DMSO and the cells were returned to the incubator overnight. […]
as §1, with “activity. […]” for “activity.”

[5] = biological target: T3, D168V mutant of the HCV NS3/4A 1b protease enzyme (Hepatitis C virus genotype 1b, UniProt P26663, D1194V); assay: HCV protease FRET assay, D168V mutant; type: biochemical; conditions: read-out: Inhibition, HCV D168V (IC50)
T3 construct: 10× stocks of NS3/4A protease enzyme from Bioenza; purchased Bioenza (Mountain View, Calif.)
Procedure: HCV Protease FRET Assay for Mutated NS3/4A 1b Enzymes
The protocol is a modified FRET-based assay (v—02) from In Vitro Resistance Studies of HCV Serine Protease Inhibitors, 2004, JBC, vol. 279, No. 17, pp 17508-17514. Inherent potency of compounds was assessed against A156S, A156T, D168A, and D168V mutants of the HCV NS3/4A 1b protease enzyme as follows:
Assay buffer: 2% CHAPS, 50 mM Tris pH 7.5, 50% glycerol, 2 μM M-2235 (Bachem) substrate. In a 50 μl reaction, add 49 μl assay buffer, 1 μl (1 U) HCV serine protease (Bioenza). Incubate 20 minutes at room temperature. The plate was read at either 350/460 nm (excitation/emission) on a fluorescent micro-plate reader or monitored at one-minute intervals to achieve the kinetic curve.
10× stocks of NS3/4A protease enzyme from Bioenza (Mountain View, Calif.) and 1.13×5-FAM/QXL™520 FRET peptide substrate from Anaspec (San Jose, Calif.) were prepared in 50 mM HEPES, pH 7.8, 100 mM NaCl, 5 mM DTT and 20% glycerol. 5 μL of each enzyme were pre-incubated in a Corning (#3573) 384-well, black, non-treated microtiter plate (Corning, N.Y.) for 30 min at 25° C. with a 0.5 μL volume of 50% DMSO and serially diluted compounds prepared in 50% DMSO. Protease reactions were started with the addition of 45 μL of the FRET substrate and monitored for 120 minutes at λex487/λem514 through Quad^4 monochromoters in a Synergy^4 plate reader from BioTek (Winooski, Vt.). […] Initial velocity (0 minutes to 30+ minutes) from each reaction was determined from the slope of a plot of relative fluorescence units vs time (minutes) and then plotted against inhibitor concentration to estimate IC50 from log[Inhibitor] vs Response, Variable Slope model in GraphPad Prism from GraphPad Software (San Diego, Calif.). […]
The following protocol was used to generate “apparent” IC50 (IC50—APP)) values as depicted in Table 3, below. […] Protease reactions were immediately started after enzyme addition with the addition of 45 μL of the FRET substrate and monitored for 60-90 minutes at λex485/λem520 in a Synergy^4 plate reader from BioTek (Winooski, Vt.). […]

For `CCC[C@H](NC(=O)[C@@H]1[C@H]2CCC[C@H]2CN1C(=O)[C@@H](NC(=O)[C@@H](NC(=O)c1cnccn1)C1CCCCC1)C(C)(C)C)C(=O)C(=O)NC1CC1` [Compound 1, reference compound], the “return of NS3 self-cleavage activity after drug removal” value ([1]; 16 hours incubation, in as little as 4 hours after drug removal) was “virtually complete return of activity”.
`C=C[C@@H]1C[C@]1(NC(=O)[C@@H]1C[C@@H]2CN1C(=O)[C@H](CCC(=O)C=C(C)C)NC(=O)OCCC/C=C/c1ccc3ccnc(c3c1)O2)C(=O)NS(=O)(=O)C1CC1` [Compound 6] showed an EC90 [2] of under 10 nM.
In the case of `C=C[C@@H]1C[C@]1(NC(=O)[C@@H]1C[C@@H](Oc2nccc3cc(OC)ccc23)CN1C(=O)[C@H](CCC(=O)C=C(C)C)NC(=O)OC(C)(C)C)C(=O)NS(=O)(=O)C1CC1` [Compound 5], the “covalent modification of HCV NS3/4A (mass spectrometry)” value [3] is reported as “measurable covalent modification”.
With `C=CC(=O)N[C@H](C)C(=O)N1C[C@H](Oc2cc(-c3ccccc3)nc3cc(OC)ccc23)C[C@H]1C(=O)N[C@]1(C(=O)NS(=O)(=O)C2CC2)C[C@H]1C=C` [Compound 7] the “inhibition of NS3 self-cleavage after compound removal” value ([1]; up to 24 hours after compound removal (FIG. 5)) was “virtually complete inhibition”, the “duration of inhibition of mutant protease activity after compound removal” value [4] was “at least 24 hours” and the IC50 [5] was 100 to 1000 nM.

From patent US8603737B2, “Methods for identifying HCV protease inhibitors” (priority 2008, dated 2013)
